Earlier results as cited in US12492208B2, “Crystal of pyrimidine compound” (TAIHO PHARMACEUTICAL CO., LTD., priority 2020, dated 2025).

What was measured:
brain metastatic cancer = details: clinical tests; cited from earlier work
[1] = non-clinical tests; substrates of p-gp or Bcrp; cited from earlier work

Structure (SMILES): CCOc1cc2ncc(C#N)c(Nc3ccc(OCc4ccccn4)c(Cl)c3)c2cc1NC(=O)/C=C/CN(C)C [Neratinib]
- effects against brain metastatic cancer (brain metastatic cancer): sufficient effects of these agents could not be obtained
- brain penetration properties [1]: limited
